Measured values taken from patent publication US12606528B2, “Methods and materials for inhibiting NF-kB activity” (University of Pittsburgh - Of the Commonwealth System of …, priority 2019, dated 2026).
Where two headings read alike, the source gives them in different places.

Tested on: NF-κB
Assay: NF-κB assay: THP1-NF-κB-LUC cells, LPS-stimulated secreted luciferase
Format: cell-based
Conditions: read-out: IC50 (NF-κB assay)
In short: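 THP1-NF-κB-LUC cells (25k/well) were pretreated with compounds for 2 h, then stimulated with LPS (10 ng/mL) for 18 h. Secreted luciferase was measured and normalized to vehicle, and IC50 was fitted from the concentration series.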

[1] = THP1-NF-κB-LUC cells, compounds 2 hours before LPS (10 ng/mL) for 18 hours, secreted luciferase

Structure (SMILES)	IC50 [1]	IC50
Cc1cc2c(cc1S(=O)(=O)Nc1cc(F)ccc1F)OCC(=O)N2 [BC181311]	< 0.1 µM	
Cc1cc2c(cc1S(=O)(=O)Nc1cccc(C)c1C)OCC(=O)N2 [BC181312]	1 to 10 µM	
Cc1cc2c(cc1S(=O)(=O)Nc1c(C)cccc1C(C)C)OCC(=O)N2 [BC181313]	> 10 µM	
CSc1cccc(NS(=O)(=O)c2cc3c(cc2C)NC(=O)CO3)c1 [BC181314]	< 0.1 µM	
Cc1cc2c(cc1S(=O)(=O)Nc1ccc(CC(F)(F)F)cc1)OCC(=O)N2 [BC181315]	< 0.1 µM	
Cc1cc2c(cc1S(=O)(=O)N(C)c1ccc(Br)cc1)OCC(=O)N2 [BC181316]	> 10 µM	
COc1cccc(NS(=O)(=O)c2cc3c(cc2C)N(C(C)=O)CCO3)c1 [BC181317]	> 10 µM	
CC(=O)N1CCOc2cc(S(=O)(=O)Nc3c(C)cccc3C)c(C)cc21 [BC181318]	> 10 µM	
COc1ccc(NS(=O)(=O)c2cc3c(cc2C)N(C)CCO3)cc1 [BC181319]	> 10 µM	
Cc1cccc(NS(=O)(=O)c2cc3c(cc2C)N(C)CCO3)c1 [BC181320]	> 10 µM	
Cc1cc2c(cc1S(=O)(=O)Nc1cccc(Br)c1)OCC(=O)N2 [BC181321]	< 0.1 µM	
COc1ccc(NS(=O)(=O)c2cc3c(cc2C)NC(=O)CO3)cc1OC [BC181322]	> 10 µM	
Cc1cc2c(cc1S(=O)(=O)Nc1c(C)cccc1C)OCC(=O)N2 [BC181323]	> 10 µM	
COc1cc(NS(=O)(=O)c2cc3c(cc2C)NC(=O)CO3)cc(OC)c1OC [BC181324]	> 10 µM	
CCc1cccc(CC)c1NS(=O)(=O)c1cc2c(cc1C)NC(=O)CO2 [BC181325]	> 10 µM	
COc1ccc(C)cc1NS(=O)(=O)c1cc2c(cc1C)NC(=O)CO2 [BC181326]	> 10 µM	
COc1ccc(N(C)S(=O)(=O)c2cc3c(cc2C)NC(=O)CO3)c(OC)c1 [BC181327]	> 10 µM	
COc1ccc(NS(=O)(=O)c2cc3c(cc2C)N(C(C)=O)CCO3)cc1 [BC181328]	> 10 µM	
CCc1ccc(NS(=O)(=O)c2cc3c(cc2C)N(C(C)=O)CCO3)cc1 [BC181329]	1 to 10 µM	
Cc1cc2c(cc1S(=O)(=O)Nc1ccc(Cl)cc1)OCCN2C [BC181330]	1 to 10 µM	
Cc1cc2c(cc1S(=O)(=O)Nc1ccc(F)c(Cl)c1)OCC(=O)N2 [BC181331]	< 0.1 µM	
CCNS(=O)(=O)c1cc2c(cc1C)NC(=O)CO2 [BC181332]	> 10 µM	
COc1ccc(NS(=O)(=O)c2cc3c(cc2C)NC(=O)CO3)cc1 [BC181333]	1 to 10 µM	

Structure (SMILES)	IC50 [1]	IC50
CCOC(=O)c1cccc(NS(=O)(=O)c2cc3c(cc2C)NC(=O)CO3)c1 [BC181334]	1 to 10 µM	
Cc1ccc(C)c(NS(=O)(=O)c2cc3c(cc2C)NC(=O)CO3)c1 [BC181335]	> 10 µM	
Cc1cc2c(cc1S(=O)(=O)Nc1ccc(C(C)C)cc1)OCC(=O)N2 [BC181336]	< 0.1 µM	
CCOc1ccc(OCC)c(NS(=O)(=O)c2cc3c(cc2C)NC(=O)CO3)c1 [BC181337]	> 10 µM	
CCCN(c1ccccc1OC)S(=O)(=O)c1cc2c(cc1C)NC(=O)CO2 [BC181338]	1 to 10 µM	
CC(=O)N1CCOc2cc(S(=O)(=O)Nc3ccccc3Br)c(C)cc21 [BC181339]	> 10 µM	
CCOc1ccc(NS(=O)(=O)c2cc3c(cc2C)N(C(C)=O)CCO3)cc1 [BC181340]	> 10 µM	
Cc1cc2c(cc1S(=O)(=O)Nc1ccc(F)cc1F)OCCN2C [BC181341]	1 to 10 µM	
Cc1cc2c(cc1S(=O)(=O)Nc1ccc3c(c1)OCCO3)OCC(=O)N2 [BC181342]	0.1 to 1 µM	
Cc1ccc(NS(=O)(=O)c2cc3c(cc2Cl)NC(=O)CO3)cc1F [BC181343]	< 0.1 µM	
Cc1cc2c(cc1S(=O)(=O)Nc1ccccc1Br)OCC(=O)N2 [BC181344]	0.1 to 1 µM	
CCN(c1ccccc1)S(=O)(=O)c1cc2c(cc1C)NC(=O)CO2 [BC181345]	> 10 µM	
Cc1ccc(NS(=O)(=O)c2cc3c(cc2C)NC(=O)CO3)c(C)c1 [BC181346]	> 10 µM	
CCc1cccc(NS(=O)(=O)c2cc3c(cc2C)NC(=O)CO3)c1 [BC181347]	1 to 10 µM	
CCN(CC)c1ccc(NS(=O)(=O)c2cc3c(cc2C)NC(=O)CO3)c(C)c1 [BC181348]	> 10 µM	
CCN(c1ccc(OC)cc1)S(=O)(=O)c1cc2c(cc1C)NC(=O)CO2 [BC181349]	> 10 µM	
CC(=O)N1CCOc2cc(S(=O)(=O)Nc3cccc(Cl)c3)c(C)cc21 [BC181350]	1 to 10 µM	
CC(=O)N1CCOc2cc(S(=O)(=O)Nc3ccccc3C)c(C)cc21 [BC181351]		> 10 µM
CCc1ccc(NS(=O)(=O)c2cc3c(cc2C)N(C)CCO3)cc1 [BC181352]	> 10 µM	
Cc1ccc(NS(=O)(=O)c2cc3c(cc2C)NC(=O)CO3)cc1F [BC181353]	< 0.1 µM	
Cc1cc2c(cc1S(=O)(=O)Nc1cccc(Cl)c1)OCC(=O)N2 [BC181354]	< 0.1 µM	
Cc1cc2c(cc1S(=O)(=O)Nc1ccc(Cl)cc1)OCC(=O)N2 [BC181355]	< 0.1 µM	
CCc1ccccc1NS(=O)(=O)c1cc2c(cc1C)NC(=O)CO2 [BC181356]	> 10 µM	

Structure (SMILES)	IC50 [1]	IC50
COc1ccc(OC)c(NS(=O)(=O)c2cc3c(cc2C)NC(=O)CO3)c1 [BC181357]	> 10 µM	
COc1ccc(Cl)cc1NS(=O)(=O)c1cc2c(cc1C)NC(=O)CO2 [BC181358]	> 10 µM	
Cc1cccc(N(C)S(=O)(=O)c2cc3c(cc2C)NC(=O)CO3)c1 [BC181359]	> 10 µM	
COc1ccc(OC)c(N(C)S(=O)(=O)c2cc3c(cc2C)NC(=O)CO3)c1 [BC181360]	> 10 µM	
CC(=O)N1CCOc2cc(S(=O)(=O)Nc3ccc(Cl)cc3)c(C)cc21 [BC181361]	0.1 to 1 µM	
CC(=O)N1CCOc2cc(S(=O)(=O)Nc3ccc(C(C)C)cc3)c(C)cc21 [BC181362]	1 to 10 µM	
Cc1cc2c(cc1S(=O)(=O)Nc1cccc(F)c1)OCCN2C [BC181363]	> 10 µM	
Cc1cc2c(cc1S(=O)(=O)Nc1ccc(F)c(F)c1)OCC(=O)N2 [BC181364]	0.1 to 1 µM	
Cc1cc2c(cc1S(=O)(=O)Nc1cc(C(F)(F)F)cc(C(F)(F)F)c1)OCC(=O)N2 [BC181365]	1 to 10 µM	
Cc1ccc(Cl)cc1NS(=O)(=O)c1cc2c(cc1C)NC(=O)CO2 [BC181366]	1 to 10 µM	
CCc1ccc(NS(=O)(=O)c2cc3c(cc2C)NC(=O)CO3)cc1 [BC181367]	< 0.1 µM	
Cc1ccc(NS(=O)(=O)c2cc3c(cc2C)NC(=O)CO3)cc1C [BC181368]	1 to 10 µM	
COc1ccc(NS(=O)(=O)c2cc3c(cc2C)NC(=O)CO3)cc1Cl [BC181369]	1 to 10 µM	
Cc1ccc(NS(=O)(=O)c2cc3c(cc2C)NC(=O)CO3)cc1 [BC181370]	< 0.1 µM	
CC(=O)c1ccc(NS(=O)(=O)c2cc3c(cc2C)N(C(C)=O)CCO3)cc1 [BC181371]	> 10 µM	
CC(=O)N1CCOc2cc(S(=O)(=O)Nc3ccc(F)cc3F)c(C)cc21 [BC181372]	1 to 10 µM	
CCc1cccc(NS(=O)(=O)c2cc3c(cc2C)N(C(C)=O)CCO3)c1 [BC181373]	> 10 µM	
CCOc1ccc(NS(=O)(=O)c2cc3c(cc2C)N(C)CCO3)cc1 [BC181374]	> 10 µM	
Cc1cc2c(cc1S(=O)(=O)Nc1ccc(F)cc1Cl)OCC(=O)N2 [BC181375]	0.1 to 1 µM	
COc1ccc(NS(=O)(=O)c2cc3c(cc2C)NC(=O)CO3)c(OC)c1 [BC181376]	> 10 µM	
Cc1cc2c(cc1S(=O)(=O)Nc1cccc(F)c1)OCC(=O)N2 [BC181377]	< 0.1 µM	
Cc1cc(C)cc(NS(=O)(=O)c2cc3c(cc2C)NC(=O)CO3)c1 [BC181378]	1 to 10 µM	
